System: OVCAR-5 complex spheroids, viability
Assay: Anticancer human tumor OVCAR-5 cell line growth inhibition;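 also: spheroids exposed to agents for seven days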;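 as to viability, T/C: 100% = DMSO vehicle control wells viability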
Conditions: for IC50: curve of first compound; for viability, T/C: stronger effect = lower value
How it was run: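 Complex spheroids of tumor cells with HUVEC and human MSCs, exposed to iadademstat combined with other agents. Each agent tested in half-log steps from near clinical Cmax (else 10 microM top), DMSO ≤0.25%.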

[1] = second compound 0.1 µM, first compound 0.00949 µM
[2] = second compound 0.1 µM, first compound 0.03 µM
[3] = second compound 0.1 µM, first compound 0.0949 µM
[4] = second compound 0.1 µM, first compound 0.3 µM
[5] = second compound 0.1 µM, first compound 0.949 µM
[6] = second compound 0.1 µM, first compound 3 µM
[7] = second compound 0.316 µM, first compound 0.00949 µM
[8] = second compound 0.316 µM, first compound 0.03 µM
[9] = second compound 0.316 µM, first compound 0.0949 µM
[10] = second compound 0.316 µM, first compound 0.3 µM
[11] = second compound 0.316 µM, first compound 0.949 µM
[12] = second compound 0.316 µM, first compound 3 µM
[13] = second compound 1 µM, first compound 0.00949 µM
[14] = second compound 1 µM, first compound 0.03 µM
[15] = second compound 1 µM, first compound 0.0949 µM
[16] = second compound 1 µM, first compound 0.3 µM
[17] = second compound 1 µM, first compound 0.949 µM
[18] = second compound 1 µM, first compound 3 µM
[19] = second compound 3.16 µM, first compound 0.00949 µM
[20] = second compound 3.16 µM, first compound 0.03 µM
[21] = second compound 3.16 µM, first compound 0.0949 µM
[22] = second compound 3.16 µM, first compound 0.3 µM
[23] = second compound 3.16 µM, first compound 0.949 µM
[24] = second compound 3.16 µM, first compound 3 µM
[25] = second compound 10 µM, first compound 0.00949 µM
[26] = second compound 10 µM, first compound 0.03 µM
[27] = second compound 10 µM, first compound 0.0949 µM
[28] = second compound 10 µM, first compound 0.3 µM
[29] = second compound 10 µM, first compound 0.949 µM
[30] = second compound 10 µM, first compound 3 µM
[31] = second compound 0.1 µM, first compound 0.00316 µM
[32] = second compound 0.1 µM, first compound 0.01 µM
[33] = second compound 0.1 µM, first compound 0.0316 µM
[34] = second compound 0.1 µM, first compound 0.1 µM
[35] = second compound 0.316 µM, first compound 0.00316 µM
[36] = second compound 0.316 µM, first compound 0.01 µM
[37] = second compound 0.316 µM, first compound 0.0316 µM
[38] = second compound 0.316 µM, first compound 0.1 µM
[39] = second compound 1 µM, first compound 0.00316 µM
[40] = second compound 1 µM, first compound 0.01 µM
[41] = second compound 1 µM, first compound 0.0316 µM
[42] = second compound 1 µM, first compound 0.1 µM
[43] = second compound 3.16 µM, first compound 0.00316 µM
[44] = second compound 3.16 µM, first compound 0.01 µM
[45] = second compound 3.16 µM, first compound 0.0316 µM
[46] = second compound 3.16 µM, first compound 0.1 µM
[47] = second compound 10 µM, first compound 0.00316 µM
[48] = second compound 10 µM, first compound 0.01 µM
[49] = second compound 10 µM, first compound 0.0316 µM
[50] = second compound 10 µM, first compound 0.1 µM

For `O=C(C=Cc1cccc(S(=O)(=O)Nc2ccccc2)c1)NO` + NC1CC1c1ccc(-c2cccc(O)c2)cc1, the IC50 (second compound 0.1 µM) was 118 nM, the IC50 (second compound 0.316 µM) was 124 nM and the IC50 (second compound 1 µM) was 81.9 nM. The IC50 (second compound 3.16 µM) was 74 nM, the IC50 (second compound 10 µM) was 78 nM and the viability, T/C [1] was 90.3%. The viability, T/C [2] was 78.2%, the viability, T/C [3] was 54.6% and the viability, T/C [4] was 28.7%. It also gave a viability, T/C [5] of 11.8%, a viability, T/C [6] of 2.54% and a viability, T/C [7] of 89.4%. The viability, T/C [8] was 82.5%, the viability, T/C [9] was 55.3% and the viability, T/C [10] was 27.7%. The viability, T/C [11] was 13.8%, the viability, T/C [12] was 2.81% and the viability, T/C [13] was 82.7%. The viability, T/C [14] was 69.6%, the viability, T/C [15] was 46.5% and the viability, T/C [16] was 25.3%. For the same compound, the viability, T/C [17] was 9.19%, the viability, T/C [18] was 2.22% and the viability, T/C [19] was 82.9%. For the same compound, the viability, T/C [20] was 67.5%, the viability, T/C [21] was 44.3% and the viability, T/C [22] was 25.9%. The viability, T/C [23] was 10.2%, the viability, T/C [24] was 2.06% and the viability, T/C [25] was 87.9%. The viability, T/C [26] was 73.9%, the viability, T/C [27] was 40.2% and the viability, T/C [28] was 28.6%. The viability, T/C [29] was 11.8% and the viability, T/C [30] was 2.64%.

`CCN(c1cc(-c2ccc(CN3CCOCC3)cc2)cc(C(=O)NCc2c(C)cc(C)[nH]c2=O)c1C)C1CCOCC1` + NC1CCC(NC2CC2c2ccccc2)CC1 was tested, and the IC50 (second compound 0.1 µM) was greater than 3000 nM, the IC50 (second compound 0.316 µM) was greater than 3000 nM and the IC50 (second compound 1 µM) was greater than 3000 nM. The IC50 (second compound 3.16 µM) was greater than 3000 nM, the IC50 (second compound 10 µM) was greater than 3000 nM and the viability, T/C [1] was 116%. For the same compound, the viability, T/C [2] was 110%, the viability, T/C [3] was 96.1% and the viability, T/C [4] was 100%. For the same compound, the viability, T/C [5] was 106%, the viability, T/C [6] was 101% and the viability, T/C [7] was 109%. For the same compound, the viability, T/C [8] was 114%, the viability, T/C [9] was 101% and the viability, T/C [10] was 108%. It also gave a viability, T/C [11] of 103%, a viability, T/C [12] of 101% and a viability, T/C [13] of 92.4%. For the same compound, the viability, T/C [14] was 105%, the viability, T/C [15] was 90.6% and the viability, T/C [16] was 97%. The viability, T/C [17] was 96.5%, the viability, T/C [18] was 87.6% and the viability, T/C [19] was 96%. The viability, T/C [20] was 94.5%, the viability, T/C [21] was 94% and the viability, T/C [22] was 81.4%. For the same compound, the viability, T/C [23] was 89.9%, the viability, T/C [24] was 94.4% and the viability, T/C [25] was 88.2%. For the same compound, the viability, T/C [26] was 82.1%, the viability, T/C [27] was 93.7% and the viability, T/C [28] was 79.9%. For the same compound, the viability, T/C [29] was 72.5% and the viability, T/C [30] was 76.4%.

For `CC1COCCN1c1cc(-c2ccnn2C)c2ccnc(-c3ccn[nH]3)c2n1` (stereo not given) + NC1CC1c1ccc(-c2cccc(O)c2)cc1, the IC50 (second compound 0.1 µM) was 31.6 nM, the IC50 (second compound 0.316 µM) was 33 nM and the IC50 (second compound 1 µM) was 24.6 nM. It also gave an IC50 (second compound 3.16 µM) of 25.2 nM, an IC50 (second compound 10 µM) of 19.9 nM and a viability, T/C [31] of 98.8%. It also gave a viability, T/C [32] of 79.8%, a viability, T/C [33] of 49% and a viability, T/C [34] of 35.6%. It also gave a viability, T/C (second compound 0.1 µM, first compound 0.316 µM) of 31.7%, a viability, T/C (second compound 0.1 µM, first compound 1 µM) of 27.9% and a viability, T/C [35] of 105%. For the same compound, the viability, T/C [36] was 79.1%, the viability, T/C [37] was 49.6% and the viability, T/C [38] was 36.5%. The viability, T/C (second compound 0.316 µM, first compound 0.316 µM) was 30.4%, the viability, T/C (second compound 0.316 µM, first compound 1 µM) was 27.9% and the viability, T/C [39] was 91.3%. It also gave a viability, T/C [40] of 72.8%, a viability, T/C [41] of 42.3% and a viability, T/C [42] of 33.4%. It also gave a viability, T/C (second compound 1 µM, first compound 0.316 µM) of 27.3%, a viability, T/C (second compound 1 µM, first compound 1 µM) of 25.8% and a viability, T/C [43] of 88.9%. For the same compound, the viability, T/C [44] was 75.1%, the viability, T/C [45] was 43% and the viability, T/C [46] was 32.8%. For the same compound, the viability, T/C (second compound 3.16 µM, first compound 0.316 µM) was 31.1%, the viability, T/C (second compound 3.16 µM, first compound 1 µM) was 25.3% and the viability, T/C [47] was 95.9%. The viability, T/C [48] was 62.1%, the viability, T/C [49] was 42.5% and the viability, T/C [50] was 30.4%. For the same compound, the viability, T/C (second compound 10 µM, first compound 0.316 µM) was 31.3% and the viability, T/C (second compound 10 µM, first compound 1 µM) was 26%.

In the case of `CC(C)CC(NC(=O)CNC(=O)c1cc(Cl)ccc1Cl)B1OC(=O)CC(CC(=O)O)(C(=O)O)O1` (stereo not given) + NC1CC1c1ccc(-c2cccc(O)c2)cc1, the IC50 (second compound 0.1 µM) is reported as greater than 100 nM, the IC50 (second compound 0.316 µM) is reported as greater than 100 nM and the IC50 (second compound 1 µM) is reported as greater than 100 nM. For the same compound, the IC50 (second compound 3.16 µM) was greater than 100 nM, the IC50 (second compound 10 µM) was 99.8 nM and the viability, T/C (second compound 0.1 µM, first compound 0.000316 µM) was 92.4%. It also gave a viability, T/C (second compound 0.1 µM, first compound 0.001 µM) of 87%, a viability, T/C [31] of 89.8% and a viability, T/C [32] of 72.1%. The viability, T/C [33] was 66.2%, the viability, T/C [34] was 55% and the viability, T/C (second compound 0.316 µM, first compound 0.000316 µM) was 96.6%. For the same compound, the viability, T/C (second compound 0.316 µM, first compound 0.001 µM) was 92.1%, the viability, T/C [35] was 80.4% and the viability, T/C [36] was 73.3%. It also gave a viability, T/C [37] of 74.4%, a viability, T/C [38] of 57.5% and a viability, T/C (second compound 1 µM, first compound 0.000316 µM) of 98%. For the same compound, the viability, T/C (second compound 1 µM, first compound 0.001 µM) was 91.6%, the viability, T/C [39] was 79.3% and the viability, T/C [40] was 71.1%. The viability, T/C [41] was 66.8%, the viability, T/C [42] was 53.6% and the viability, T/C (second compound 3.16 µM, first compound 0.000316 µM) was 79.6%. The viability, T/C (second compound 3.16 µM, first compound 0.001 µM) was 78.7%, the viability, T/C [43] was 83.9% and the viability, T/C [44] was 65.8%. It also gave a viability, T/C [45] of 64.3%, a viability, T/C [46] of 51.8% and a viability, T/C (second compound 10 µM, first compound 0.000316 µM) of 97.1%. The viability, T/C (second compound 10 µM, first compound 0.001 µM) was 93.3%, the viability, T/C [47] was 71.4% and the viability, T/C [48] was 70.3%. For the same compound, the viability, T/C [49] was 64.8% and the viability, T/C [50] was 47%.

Source: PubChem BioAssay AID1918956 (Molecular Pharmacology Branch, DTP, NCI, 2023)
